What was measured:
[1] = DSC measurement of the amorphous tosylate; format: physicochemical; settings: 30° C. - 190° C., 10° C./min, open Al crucible
Procedure: According to DSC measurements the amorphous form formed with p-toluenesulfonic acid according to the invention only transforms into the crystalline form A at a temperature of around 120° C. This supports that the amorphous form is suitable for the production of pharmaceutical preparations. In other words the advantage of the invention is that the amorphous salt according to the invention is morphologically uniform and stable. Therefore, it is not expected to transform into another form in the pharmaceutical preparation, and the quality of the preparations, primarily its dissolution characteristics are not expected to change. The morphological uniformity is supported by the x-ray powder diffractogram of the novel salt, it confirms its uniform crystal structure and enables the identification of the form even in a pharmaceutical preparation, thereby making it possible to monitor the quality at a later time, and differentiate it from other crystalline polymorphous forms. [table]

[2] = Storage stability of the amorphous salt by x-ray powder diffraction; format: physicochemical; settings: storage at room temperature in a sealed vessel; XRD curves after production and after storage essentially the same (FIG. 5)
Description: The reason for this is that the general experience with amorphous active substances is that they are less chemically stable, also while amorphous substances are left to stand, optionally, during storage, or in the pharmaceutical preparation itself they partially or completely transform into a crystalline form or into a mixture of several crystalline forms forming a morphologically inhomogeneous (non-uniform) active substance. Furthermore the solubility of the unstable amorphous compound usually differs from the solubility of the crystalline active substance, a morphological change during storage may lead to a change in the effect of the preparation. However, contrary to the general expectations it was surprising to experience that the formula (III) amorphous lumateperone salt according to the invention, in which salt the molar ratio of the formula (I) lumateperone and p-toluenesulfonic acid is 1:1, remains stable for 3 months (see FIG. 5) without transforming into the very stable polymorph form A or other form. […] It can be seen that the two curves are essentially the same, no peaks characteristic of crystalline forms are apparent even after storage. […] [table] [table]

temperature at which the amorphous form transforms into the crystalline form A [1]: around 120 °C | remains stable without transforming into the very stable polymorph form A or other form [2]: 3 months
SMILES: CN1CCN2c3c(cccc31)[C@@H]1CN(CCCC(=O)c3ccc(F)cc3)CC[C@@H]12.Cc1ccc(S(=O)(=O)O)cc1
